What was measured:
Pharmacokinetics in mice = format: in vivo, Balb/c mice; conditions: 3 mg/kg, Mouse PK (IV, 3 mpk), single injection, plasma
Excerpt: Objective: To evaluate the pharmacokinetic characteristics of the compounds of the present disclosure in mice.
Balb/c mice were taken, with 12 mice per group (half male and half female), randomly grouped, and administered a single injection of the sample (Formulation A: 5% DMSO + 95% (15% sulfobutyl-β-cyclodextrin-normal saline), Formulation B: 5% DMSO-10% Solutol HS 15-85% normal saline, diluted according to the dose). Blood samples were collected at crossover time points, including before administration and at 5 min, 30 min, 1 h, 2 h, 4 h, 6 h, 8 h, 10 h, and 24 h after administration. Plasma was collected, and the sample concentration in plasma was detected by LC-MS. Table 2-1. PK parameters of the compounds of the present disclosure in mice

Pharmacokinetics in rats = format: in vivo, SD rats; conditions: 3 mg/kg, Rat PK (IV, 3 mpk), single injection, plasma, Formulation A
Method: Objective: To evaluate the pharmacokinetic characteristics of the compounds of the present disclosure in rats.
SD rats (purchased from Beijing Vital River Laboratory Animal Technology Co., Ltd.) were used, with 6 rats per group (half male and half female), randomly grouped. A single injection of the sample (Formulation A: 5% DMSO + 95% (15% sulfobutyl-β-cyclodextrin-normal saline), diluted according to the dose) was administered. Blood samples were collected at crossover time points: before administration and at 5 min, 30 min, 1 h, 2 h, 4 h, 6 h, 8 h, 10 h, and 24 h after administration. Plasma was collected, and the sample concentration in plasma was detected by LC-MS. Table 3-1. PK parameters of the compounds of the present disclosure in rats

[1] = Repeated administration toxicity experiment in rats; format: in vivo, SD rats; conditions: for Clinical observation: course after ataxia / Clinical observation: animals showed ataxia immediately after administration / Clinical observation: died during recovery (among animals with ataxia) / Body weight / food intake: tail vein injection for 7 consecutive days; for Clinical observation: animals showed ataxia immediately after administration / Clinical observation: died during recovery (among animals with ataxia): main trial group + TK group; for gross dissection: lungs: gross dissection on D8 after administration; for Body weight / food intake: 0.3 mg/kg and 1.0 mg/kg, Compound 2 stated relative to Dxd at the same dose
Method: Test sample preparation: The test sample was weighed according to the predetermined weight into a glass vial. First, 1 mL of DMSO was added and mixed until the test sample was dissolved, followed by the addition of 1 mL of Solutol HS-15.
SD rats (purchased from Beijing Vital River) were used as test animals. […] During the acclimation period, one cage-side observation was conducted daily; during the administration period, all animals were subjected to clinical observations twice daily (morning and afternoon). Reactions in various aspects, including the skin, fur, eyes (sclera), ears, nose, oral cavity, chest, abdomen, urogenital area, limbs, as well as respiration, movement, urination, defecation (including urine and feces color), and behavioral changes, were recorded. Daily weight data of the main test group animals were documented. For animals scheduled for dissection, terminal body weight (fasted) was measured before dissection. The food intake of the test animals was also recorded.
At the end of the administration, gross dissection was performed on D8 after administration.

[2] = tested on: Calu-3 (human lung adenocarcinoma cells); assay: In vitro antitumor activity (cell proliferation inhibition, CellTiter-Glo); format: cell-based; conditions: Calu-3 cells, 48 hours of incubation
Excerpt: (§1) Objective: To detect the in vitro inhibitory activity of the compounds of the present disclosure against NCI-N87 (human gastric cancer cells), Calu-3 (human lung adenocarcinoma cells), MDA-MB-453 (human breast cancer cells), KPL-4 (human breast cancer cells), or MDA-MB-468 (human breast cancer cells).
(§2) Tumor cells in the logarithmic growth phase, including NCI-N87 (source: ATCC, catalog number: CRL-5822), Calu-3 (source: ATCC, catalog number: HTB-55), MDA-MB-453 (source: ATCC, catalog number: HTB-131), KPL-4 (source: Nanjing Cobioer Biosciences, catalog number: CBP60379), or MDA-MB-468 (source: ATCC, catalog number: HTB-132), were seeded into cell plates at a density of 5,000 cells/well. The cell plates were then incubated in a 37°C, 5% CO2 cell culture incubator for 12-16 hours. 100 µL of sample (starting at 10 µM, 4-fold dilution, 10 concentrations) was added to each well. After gentle shaking, the plates were placed in the incubator for further incubation. After 48 hours of incubation, 70 µL of CellTiter-Glo™ (Promega, catalog number: G7572) working solution was added, gently shaken to lyse the cells, and the plates were read on a microplate reader. The cell proliferation inhibition rate was calculated using the following formula: cell proliferation inhibition rate = (1-sample well/control well)×100%. GraphPad Prism 8.0 software was used to plot the Log value of sample concentration as the x-axis and Cytotoxicity% as the y-axis. The data were analyzed by Nonlinear regression (curve fit) to obtain the IC50 values for each sample, with specific results shown in Tables 1-1 and 1-2. Table 1-1. In vitro activity test results of the compounds of the present disclosure

[3] = tested on: MDA-MB-453 (human breast cancer cells); assay: as above; format: cell-based; conditions: MDA-MB-453 cells, 48 hours of incubation
Excerpt: as §1, §2

[4] = tested on: MDA-MB-468 (human breast cancer cells); assay: as above; format: cell-based; conditions: MDA-MB-468 cells, 48 hours of incubation
Excerpt: as §1, §2

[5] = tested on: NCI-N87 (human gastric cancer cells); assay: as above; format: cell-based; conditions: 48 hours of incubation
Excerpt: as §1, §2

[6] = In vitro plasma stability; format: in vitro ADME; conditions: 37°C, 5 µM
Method: 398 µL of plasma was taken and preheated to 37°C, then co-incubated for 15 minutes. 2 µL of the sample solution was added to the plasma to prepare a final sample concentration of 5 µM. The above solution was co-incubated at 37°C, and 50 µL aliquots were taken at 0, 15, 30, 60, and 120 minutes, followed by the addition of 450 µL of ice-cold acetonitrile (containing the internal standard). The solution was vortexed for 10 minutes, centrifuged, and the remaining content of the parent substrate was detected by the LC-MS/MS method. For specific results, refer to Table 4-1. Table 4-1. Plasma stability of the compounds of the present disclosure

[7] = tested on: KPL-4 (human breast cancer cells); assay: In vitro antitumor activity (cell proliferation inhibition, CellTiter-Glo); format: cell-based; conditions: KPL4, KPL-4 cells, 48 hours of incubation
Excerpt: as §1, §2

[8] = both sexes, Balb/c, Formulation A (5% DMSO + 95% (15% sulfobutyl-β-cyclodextrin-normal saline))
[9] = in vivo, Formulation B (5% DMSO-10% Solutol HS 15-85% normal saline)
[10] = in vivo, Formulation A (5% DMSO + 95% (15% sulfobutyl-β-cyclodextrin-normal saline))

| Structure (SMILES) | IC50 [2] [nM] | IC50 [3] [nM] | IC50 [4] [nM] | IC50 [5] [nM] | Cmax (Pharmacokinetics in mice; [9]) [ng/mL] | half-life (Pharmacokinetics in mice; [9]) [min] | Residual content of parent toxin at 120 minutes (relative to 0 minutes) ([6]; CD1 mouse plasma) [%] | Residual content of parent toxin at 120 minutes (relative to 0 minutes) ([6]; Human plasma) [%] | other results |
| --- | --- | --- | --- | --- | --- | --- | --- | --- | --- |
| CC[C@@]1(O)C(=O)OCc2c1cc1n(c2=O)Cc2c-1nc1cc(F)c(C)c3c1c2[C@@H](NC(=O)CO)CC3 [Dxd] | – | – | – | – | – | – | – | – | Cmax (Pharmacokinetics in mice; [8]): 521 ng/mL; half-life (Pharmacokinetics in mice; [8]): 70.2 min; AUC(0-inf) (Pharmacokinetics in rats; both sexes, SD): 352 ng·h/mL; Cmax (Pharmacokinetics in rats; both sexes, SD): 621 ng/mL; clearance (Pharmacokinetics in rats; both sexes, SD): 144 mL/min/kg; half-life (Pharmacokinetics in rats; both sexes, SD): 70.3 min; Clinical observation: course after ataxia ([1]; 0.3 mpk dose group): the other rats gradually recovered; Clinical observation: animals showed ataxia immediately after administration ([1]; 0.3 mpk dose group): 31%; Clinical observation: died during recovery (among animals with ataxia) ([1]; 0.3 mpk dose group): 40%; Clinical observation: course after ataxia ([1]; 1 mpk dose group): the other rats gradually recovered; Clinical observation: animals showed ataxia immediately after administration ([1]; 1 mpk dose group): 31%; Clinical observation: died during recovery (among animals with ataxia) ([1]; 1 mpk dose group): 40%; gross dissection: lungs [1]: Focal/punctate dark red discoloration was observed in the lungs of some deceased rats; Body weight [1]: Slow weight gain/weight loss;; food intake [1]: Decreased food intake |
| [2H]C1([2H])OC(=O)[C@](O)(CC)c2cc3n(c(=O)c21)Cc1c-3nc2cc(F)c(C)c3c2c1[C@@H](NC(=O)[C@H](O)C1CC1)CC3 [Compound 3] | 17.1 | 40.3 | 0.97 | 4.37 | 4300 | 36.4 | 104.97 | 105.54 | – |
| [2H]C1([2H])OC(=O)[C@](O)(CC)c2cc3n(c(=O)c21)Cc1c-3nc2cc(F)c(C)c3c2c1[C@@H](NC(=O)C[C@H](C)O)CC3 [Compound 6] | 46.6 | 121 | 3.11 | 13.3 | 2580 | 40.7 | 105.93 | 94.89 | – |
| [2H]C1([2H])OC(=O)[C@](O)(CC)c2cc3n(c(=O)c21)Cc1c-3nc2cc(F)c(C)c3c2c1[C@@H](NC(=O)CO)CC3 [Compound 2] | 27.1 | 114 | 0.98 | 7.17 | – | – | – | – | Cmax (Pharmacokinetics in mice; [10]): 449 ng/mL; half-life (Pharmacokinetics in mice; [10]): 27.3 min; AUC(0-inf) (Pharmacokinetics in rats; in vivo): 218 ng·h/mL; Cmax (Pharmacokinetics in rats; in vivo): 406 ng/mL; clearance (Pharmacokinetics in rats; in vivo): 235 mL/min/kg; half-life (Pharmacokinetics in rats; in vivo): 39.7 min; Clinical observation: course after ataxia ([1]; 0.3 mpk dose group): then gradually recovered; Clinical observation: animals showed ataxia immediately after administration ([1]; 0.3 mpk dose group): 13%; Clinical observation: course after ataxia ([1]; 1 mpk dose group): then gradually recovered; Clinical observation: animals showed ataxia immediately after administration ([1]; 1 mpk dose group): 25%; average food intake, ♀ rats ([1]; female rats, compared with the control (Dxd) group at the same dose): For ♀ rats, the average food intake in the Compound 2 group was higher than that in the control group at the same dose;; gross dissection: lungs [1]: no such pathological changes were found in any dose group; Body weight [1]: At the same dose, the effects of Compound 2 and Dxd on rat body weight and food intake were generally comparable;; food intake [1]: At the same dose, the effects of Compound 2 and Dxd on rat body weight and food intake were generally comparable; |
| [2H]C1([2H])OC(=O)[C@](O)(CC)c2cc3n(c(=O)c21)Cc1c-3nc2cc3c(cc2c1CCCO)OCO3 [Compound 12] | – | – | 1.7 | 7.29 | – | – | – | – | IC50 [7]: 7.05 nM |
| [2H]C1([2H])OC(=O)[C@](O)(CC)c2cc3n(c(=O)c21)Cc1c-3nc2cc(F)c(C)c3c2c1[C@@H](NC(=O)[C@@H](O)C1CC1)CC3 [Compound 4] | 19.3 | 55.3 | 0.88 | 4.06 | – | – | – | – | – |
| [2H]C1([2H])OC(=O)[C@](O)(CC)c2cc3n(c(=O)c21)Cc1c-3nc2cc(F)c(C)c3c2c1[C@@H](NC(=O)C[C@@H](C)O)CC3 [Compound 5] | 32.9 | 94.6 | 1.3 | 9.18 | 3520 | 40.4 | 96.02 | 107.73 | – |
